Several values for one entry are separate records, joined by “and”; a condition that tells them apart may be missing. Equal values may be shown once. Toxic doses and inconclusive results are not listed.

For this experiment, the system named is P388 leukemia ip, CD2F1 mice, survival T/C. The experiment is described as follows: NCI In Vivo Anticancer Drug Screen. Data for tumor model P388 Leukemia (intraperitoneal) in CD2F1 (CDF1) mice. Conditions: endpoint: median survival time, higher = longer survival. In short, it runs like this:
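Mice carrying the transplanted tumor received test compound or vehicle. Survival was recorded in each group, and the value is the treated-group measurement divided by that of the vehicle-treated control group.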

Where [1] appears, read: dose: 25.0 mg/kg/injection, schedule: Q01DX009 (ip), vehicle: saline with Tween-80.
[2] abbreviates: dose: 50.0 mg/kg/injection, schedule: Q01DX009 (ip), vehicle: saline with Tween-80.
The mark [3] stands for this setting: dose: 50.0 mg/kg/injection, schedule: Q04DX003 (ip), vehicle: saline with Tween-80.
Where [4] appears, read: dose: 100.0 mg/kg/injection, schedule: Q01DX009 (ip), vehicle: saline with Tween-80.
Setting [5] is: dose: 100.0 mg/kg/injection, schedule: Q04DX003 (ip), vehicle: saline with Tween-80.
Where [6] appears, read: dose: 50.0 mg/kg/injection, schedule: Q01DX005 (ip), vehicle: Klucel (hydroxypropylcellulose) (HPC).
Where [7] appears, read: dose: 100.0 mg/kg/injection, schedule: Q01DX005 (ip), vehicle: Klucel (hydroxypropylcellulose) (HPC).
Where [8] appears, read: dose: 200.0 mg/kg/injection, schedule: Q01DX005 (ip), vehicle: Klucel (hydroxypropylcellulose) (HPC).
Setting [9] is: dose: 6.25 mg/kg/injection, schedule: Q01DX009 (ip), vehicle: saline with Tween-80.
[10] abbreviates: dose: 12.5 mg/kg/injection, schedule: Q01DX009 (ip), vehicle: saline with Tween-80.
[11] abbreviates: dose: 200.0 mg/kg/injection, schedule: Q01DX009 (ip), vehicle: saline with Tween-80.

For the compound `CCOC(=O)C(Cc1ccc(N(CCCl)CCCl)cc1)NC=O` (configuration not stated), the T/C (dose: 6.25 mg/kg/injection, schedule: Q04DX003 (ip), vehicle: saline with Tween-80) is 150 % of control; the T/C (dose: 12.5 mg/kg/injection, schedule: Q04DX003 (ip), vehicle: saline with Tween-80) is 154 % of control; the T/C under setting [1] was 181 % of control; the T/C under setting [2] was 209 % of control; the T/C under setting [3] was 181 % of control; the T/C under setting [4] was 100 % of control. In addition, the T/C is 204 % of control and 216 % of control under setting [5]; 91 % of control (dose: 200.0 mg/kg/injection, schedule: Q04DX003 (ip), vehicle: saline with Tween-80).

Regarding `CCN(CC)C1=Nc2ccccc2N(c2ccccc2)C(SC)=C1`, the T/C reads like this: under setting [6], 111 % of control; under setting [7], 100 % of control; under setting [8], 97 % of control.

For the compound `Cc1c(C=[N+]2CCCCC2)c2ccccc2n1C`, the T/C reads like this: under setting [9], 100 % of control; under setting [10], 109 % of control; under setting [1], 109 % of control and 120 % of control; under setting [2], 104 % of control and 118 % of control; under setting [4], 103 % of control.

As to `C/C=C/C=C\C=C/C(O)CC(OP(=O)(O)O)C(C)(O)/C=C/C1CC=CC(=O)O1` (configuration not stated), the T/C is 116 % of control (dose: 0.75 mg/kg/injection, schedule: Q01DX005 (ip), vehicle: water); 119 % of control (dose: 1.5 mg/kg/injection, schedule: Q01DX005 (ip), vehicle: water); 183 % of control (dose: 6.25 mg/kg/injection, schedule: Q01DX005 (ip), vehicle: water).

Consider `CC(C)[C@](O)(C(=O)OC1CCN2CCC(CO)C12)[C@H](C)O` (some centres not stated), for which the T/C reads like this: (dose: 11.5 mg/kg/injection, schedule: Q01DX009 (ip), vehicle: saline) 111 % of control; (dose: 23.0 mg/kg/injection, schedule: Q01DX009 (ip), vehicle: saline) 107 % of control; (dose: 46.0 mg/kg/injection, schedule: Q01DX009 (ip), vehicle: saline) 105 % of control; (dose: 92.0 mg/kg/injection, schedule: Q01DX009 (ip), vehicle: saline) 98 % of control.

On to `COc1cc(C[C@@H](CO)[C@H](CO)Cc2ccc3c(c2)OCO3)cc(OC)c1OC`, for which the T/C is, setting by setting: (dose: 6.25 mg/kg/injection, schedule: Q04DX002 (ip), vehicle: saline with Tween-80) 101 % of control; (dose: 12.5 mg/kg/injection, schedule: Q04DX002 (ip), vehicle: saline with Tween-80) 101 % of control; (dose: 25.0 mg/kg/injection, schedule: Q04DX002 (ip), vehicle: saline with Tween-80) 93 % of control.

Turning to `CCCCC1(CC)COC(C)(c2ccccc2)OC1` (configuration not stated), the T/C is, setting by setting: (dose: 75.0 mg/kg/injection, schedule: Q01DX009 (ip), vehicle: saline) 112 % of control; (dose: 150.0 mg/kg/injection, schedule: Q01DX009 (ip), vehicle: saline) 110 % of control; (dose: 300.0 mg/kg/injection, schedule: Q01DX009 (ip), vehicle: saline) 108 % of control.

With `CC(C)(CNCc1ccccc1)COS(=O)(=O)O`, the T/C by setting is: (dose: 100.0 mg/kg/injection, schedule: Q01DX001 (ip), vehicle: saline) 110 % of control; (dose: 200.0 mg/kg/injection, schedule: Q01DX001 (ip), vehicle: saline) 105 % of control; (dose: 400.0 mg/kg/injection, schedule: Q01DX001 (ip), vehicle: saline) 100 % of control.

`CC(C)c1ccc(C(CC(=O)c2ccccc2)C(C(=O)O)c2ccccc2)cc1` (configuration not stated): the T/C reads like this: (dose: 50.0 mg/kg/injection, schedule: Q01DX009 (ip), vehicle: Klucel (hydroxypropylcellulose) (HPC)) 97 % of control; (dose: 100.0 mg/kg/injection, schedule: Q01DX009 (ip), vehicle: Klucel (hydroxypropylcellulose) (HPC)) 89 % of control; (dose: 200.0 mg/kg/injection, schedule: Q01DX009 (ip), vehicle: Klucel (hydroxypropylcellulose) (HPC)) 89 % of control.

As for `ClCc1ccc(Cl)c(Cl)c1Cl`, the T/C under setting [1] is 100 % of control; the T/C (dose: 25.0 mg/kg/injection, schedule: Q04DX003 (ip), vehicle: saline with Tween-80) was 100 % of control; the T/C under setting [2] was 104 % of control; the T/C under setting [3] was 100 % of control; the T/C under setting [4] is 109 % of control; the T/C under setting [5] was 100 % of control.

As to `O=C(CN(O)C(=O)c1ccccc1)OCc1ccccc1`, the T/C by setting is: (dose: 12.5 mg/kg/injection, schedule: Q01DX009 (ip), vehicle: distilled water + Tween-80) 97 % of control; (dose: 25.0 mg/kg/injection, schedule: Q01DX009 (ip), vehicle: distilled water + Tween-80) 99 % of control; (dose: 50.0 mg/kg/injection, schedule: Q01DX009 (ip), vehicle: distilled water + Tween-80) 99 % of control; (dose: 100.0 mg/kg/injection, schedule: Q01DX009 (ip), vehicle: distilled water + Tween-80) 101 % of control; (dose: 200.0 mg/kg/injection, schedule: Q01DX009 (ip), vehicle: distilled water + Tween-80) 101 % of control.

Turning to `Cc1cc(OC(=O)c2c(-c3ccccc3)noc2C)n(-c2ccc(NC(=O)c3c(-c4ccccc4)noc3C)cc2)n1`, the T/C runs as follows: (dose: 50.0 mg/kg/injection, schedule: Q01DX009 (ip), vehicle: saline) 96 % of control; (dose: 100.0 mg/kg/injection, schedule: Q01DX009 (ip), vehicle: saline) 100 % of control; (dose: 200.0 mg/kg/injection, schedule: Q01DX009 (ip), vehicle: saline) 101 % of control.

For `Nc1ccc2c(c1)C(=O)CCC2`, the T/C under setting [2] was 103 % of control, the T/C under setting [4] is 99 % of control and the T/C under setting [11] is 100 % of control.

For `C=C1COC(O)(C(OC)C(O)CC2CC(=O)NC(=O)C2)C1C` (configuration not stated), the T/C was 105 % of control (dose: 0.01 mg/kg/injection, schedule: Q01DX009 (ip), vehicle: water); 104 % of control (dose: 0.03 mg/kg/injection, schedule: Q01DX009 (ip), vehicle: water); 111 % of control (dose: 0.06 mg/kg/injection, schedule: Q01DX009 (ip), vehicle: water); 117 % of control (dose: 0.12 mg/kg/injection, schedule: Q01DX009 (ip), vehicle: water).

Consider `COc1ccc(C(=O)Cc2cc3c(cc2Br)OCO3)cc1OC`, for which the T/C (dose: 100.0 mg/kg/injection, schedule: Q01DX001 (ip), vehicle: Klucel (hydroxypropylcellulose) (HPC)) was 101 % of control; the T/C (dose: 200.0 mg/kg/injection, schedule: Q01DX001 (ip), vehicle: Klucel (hydroxypropylcellulose) (HPC)) is 105 % of control; the T/C (dose: 400.0 mg/kg/injection, schedule: Q01DX001 (ip), vehicle: Klucel (hydroxypropylcellulose) (HPC)) was 99 % of control.

Regarding `CC(=O)NC(CCCCN)C(=O)O` (configuration not stated), the T/C is, setting by setting: under setting [6], 103 % of control; under setting [7], 101 % of control; under setting [8], 102 % of control.

With `COc1nncc(-c2cnnc(OC)n2)n1`, the T/C is, setting by setting: (dose: 3.13 mg/kg/injection, schedule: Q01DX009 (ip), vehicle: saline with Tween-80) 105 % of control; under setting [9], 100 % of control; under setting [10], 102 % of control.

Consider `c1ccc2cc3c(ccc4ccccc43)cc2c1`, for which the T/C is, setting by setting: (dose: 25.0 mg/kg/injection, schedule: Q04DX003 (ip), vehicle: other) 99 % of control; under setting [2], 100 % of control; (dose: 50.0 mg/kg/injection, schedule: Q04DX003 (ip), vehicle: other) 104 % of control; under setting [4], 97 % of control; (dose: 100.0 mg/kg/injection, schedule: Q04DX003 (ip), vehicle: other) 99 % of control; under setting [11], 103 % of control. Besides, the T/C is 96 % of control (dose: 200.0 mg/kg/injection, schedule: Q04DX003 (ip), vehicle: other) and 96 % of control (dose: 400.0 mg/kg/injection, schedule: Q04DX003 (ip), vehicle: other).

With `CN(Cc1ccc(Nc2ccccc2)cc1)C1CCCCC1`, the T/C is, setting by setting: (dose: 50.0 mg/kg/injection, schedule: Q01DX009 (ip), vehicle: saline + Tween-80 + alcohol) 103 % of control and 106 % of control; (dose: 100.0 mg/kg/injection, schedule: Q01DX009 (ip), vehicle: saline + Tween-80 + alcohol) 110 % of control and 111 % of control; (dose: 200.0 mg/kg/injection, schedule: Q01DX009 (ip), vehicle: saline + Tween-80 + alcohol) 109 % of control and 112 % of control; (dose: 400.0 mg/kg/injection, schedule: Q01DX009 (ip), vehicle: saline + Tween-80 + alcohol) 114 % of control.
